Assay results published in ChEMBL document CHEMBL3286145, “Evaluation of the antiprion activity of 6-aminophenanthridines and related heterocycles” (Eur J Med Chem, 2014).
pIC50: −log10 of the molar value.

Assay: Ex vivo antiprion activity against sheep 127S scrapie prion protein infected in mouse MovS6 cells assessed as PK digestion resistant-PrPSc accumulation after 6 days by immunoblot analysis
Type: cell-based
Conditions: Ovis aries, MovS6, 144 h

With `Nc1nc2ccccc2c2cc(F)ccc12` as the compound, how does the pIC50 read?
The pIC50 was 5.30.

With `Nc1nc2ccccc2c2c1CCCC2` as the compound, how does the pIC50 read?
Its pIC50 is over 5.30.

With `[N-]=[N+]=Nc1ccc2c(c1)c(N)nc1ccccc12` as the compound, how does the pIC50 read?
The pIC50 was 5.00.

With `Nc1nc2ccccc2c2c1CC=CC2` as the compound, how does the pIC50 read?
The pIC50 was 5.74.

With `Nc1nc2ccccc2c2ccc(C(F)(F)F)cc12` as the compound, how does the pIC50 read?
Its pIC50 is 5.00.

With `COc1cc(OC)c2nc(N)c3ccccc3c2c1` as the compound, how does the pIC50 read?
Its pIC50 is over 5.74.

With `Nc1nc2ccccc2c2ccc(F)cc12` as the compound, how does the pIC50 read?
The pIC50 was 4.82.

With `Nc1nc2ccccc2c2cc([N+](=O)[O-])ccc12` as the compound, how does the pIC50 read?
Its pIC50 is over 5.30.

With `Nc1nc2ccccc2c2cccc(F)c12` as the compound, how does the pIC50 read?
The pIC50 was under 4.70.

With `Nc1nc2ccccc2c2ccc([N+](=O)[O-])cc12` as the compound, how does the pIC50 read?
Its pIC50 is 4.70.

With `Nc1nc2ccccc2c2ccccc12` as the compound, how does the pIC50 read?
The pIC50 was over 5.30.

With `Nc1cccc2c1c(N)nc1ccccc12` as the compound, how does the pIC50 read?
Its pIC50 is 4.52.
